Results taken from ChEMBL document CHEMBL3045670, “Protective effect of selenium in Broccoli (Brassica oleracea) plants subjected to cadmium exposure” (J Agric Food Chem, 2008).
Active and inactive are the calls of the source. No cut-off for these calls is given here.

Key:
Leaf [1] = assay: Drug level in leaves of Brassica oleracea (Broccoli) seedlings grown in hydroponic culture containing compound at 1 mg/L assessed as SeMetSeCys level measured after 40 days after compound treatment; type: ADME; conditions: 960 h
Root [2] = assay: Drug level in roots of Brassica oleracea (Broccoli) seedlings grown in hydroponic culture containing compound at 1 mg/L in presence of 1 mg/L CdCl2 assessed as SeMetSeCys level measured after 40 days after compound treatment; type: ADME; conditions: 960 h
Brassica oleracea [3] = assay: Effect on chlorophyll level assessed per dry weight in Brassica oleracea (Broccoli) seedlings grown in hydroponic culture containing compound at 1 mg/L after 10 days after compound treatment (reference value: 200 +/- 26 mg/kg); type: functional
Leaf [4] = assay: Effect on cadmium level in leaves of Brassica oleracea (Broccoli) seedlings grown in hydroponic culture containing 1 mg/L measured after 40 days after compound treatment; type: ADME; conditions: 960 h
Brassica oleracea [5] = assay: Effect on chlorophyll level assessed per dry weight in Brassica oleracea (Broccoli) seedlings grown in hydroponic culture containing compound at 1 mg/L after 40 days after compound treatment (reference value: 181 +/- 23 mg/kg); type: functional
Root [6] = assay: Drug level in roots of Brassica oleracea (Broccoli) seedlings grown in hydroponic culture containing compound at 1 mg/L assessed as SeMet level measured after 40 days after compound treatment; type: ADME; conditions: 960 h
Root [7] = assay: Drug level in roots of Brassica oleracea (Broccoli) seedlings grown in hydroponic culture containing compound at 1 mg/L assessed as Se(IV) level measured after 40 days after compound treatment; type: ADME; conditions: 960 h
Leaf [8] = assay: Drug level in leaves of Brassica oleracea (Broccoli) seedlings grown in hydroponic culture containing compound at 1 mg/L in presence of 1 mg/L CdCl2 assessed as SeMetSeCys level measured after 40 days after compound treatment; type: ADME; conditions: 960 h
Leaf [9] = assay: Drug level in leaves of Brassica oleracea (Broccoli) seedlings grown in hydroponic culture containing compound at 1 mg/L assessed as SeMet level measured after 40 days after compound treatment; type: ADME; conditions: 960 h
Brassica oleracea [10] = assay: Reduction in MDA level in Brassica oleracea (Broccoli) seedlings grown in hydroponic culture containing compound at 1 mg/L after 30 days after compound treatment; type: functional, organism-based
Root [11] = assay: Drug level in roots of Brassica oleracea (Broccoli) seedlings grown in hydroponic culture containing 1 mg/L in presence of 1 mg/L CdCl2 measured after 40 days after compound treatment; type: ADME; conditions: 960 h
Fruit [12] = assay: Drug level in fruits of Brassica oleracea (Broccoli) seedlings grown in hydroponic culture containing compound at 1 mg/L in presence of 1 mg/L CdCl2 assessed as SeMet level measured after 40 days after compound treatment; type: ADME; conditions: 960 h
Brassica oleracea [13] = assay: (§1) Protective effect against cadmium-induced toxicity in Brassica oleracea (Broccoli) seedlings grown in hydroponic culture containing compound at 1 mg/L in presence of 1 mg/L CdCl2 assessed as chlorophyll level assessed per dry weight after 40 days after compound treatment by spectrophotometry (reference value: 118 +/- 12 mg/kg dry weight); type: functional
Root [14] = assay: Drug level in roots of Brassica oleracea (Broccoli) seedlings grown in hydroponic culture containing compound at 1 mg/L in presence of 1 mg/L CdCl2 assessed as Se(IV) level measured after 40 days after compound treatment; type: ADME; conditions: 960 h
Root [15] = assay: Drug level in roots of Brassica oleracea (Broccoli) seedlings grown in hydroponic culture containing 1 mg/L measured after 40 days after compound treatment; type: ADME; conditions: 960 h
Leaf [16] = assay: Drug level in leaves of Brassica oleracea (Broccoli) seedlings grown in hydroponic culture containing compound at 1 mg/L assessed as Se(IV) level measured after 40 days after compound treatment; type: ADME; conditions: 960 h
Fruit [17] = assay: Drug level in fruits of Brassica oleracea (Broccoli) seedlings grown in hydroponic culture containing compound at 1 mg/L in presence of 1 mg/L CdCl2 assessed as Se(IV) level measured after 40 days after compound treatment; type: ADME; conditions: 960 h
Leaf [18] = assay: Drug level in leaves of Brassica oleracea (Broccoli) seedlings grown in hydroponic culture containing compound at 1 mg/L in presence of 1 mg/L CdCl2 assessed as SeMet level measured after 40 days after compound treatment; type: ADME; conditions: 960 h
Brassica oleracea [19] = assay: Protective effect against cadmium-induced toxicity in Brassica oleracea (Broccoli) seedlings grown in hydroponic culture containing compound at 1 mg/L in presence of 1 mg/L CdCl2 assessed as attenuation of reduction in tocopherol level after 40 days after compound treatment by spectrophotometry; type: functional; design: scale not given: the % may be the effect or the level left
Fruit [20] = assay: Drug level in fruits of Brassica oleracea (Broccoli) seedlings grown in hydroponic culture containing 1 mg/L in presence of 1 mg/L CdCl2 measured after 40 days after compound treatment; type: ADME; conditions: 960 h
Fruit [21] = assay: Drug level in fruits of Brassica oleracea (Broccoli) seedlings grown in hydroponic culture containing compound at 1 mg/L assessed as SeMetSeCys level measured after 40 days after compound treatment; type: ADME; conditions: 960 h
Brassica oleracea [22] = assay: Effect on tocopherol level in Brassica oleracea (Broccoli) seedlings grown in hydroponic culture containing compound at 1 mg/L after 40 days after compound treatment; type: functional, organism-based
Root [23] = assay: Drug level in roots of Brassica oleracea (Broccoli) seedlings grown in hydroponic culture containing compound at 1 mg/L in presence of 1 mg/L CdCl2 assessed as SeMet level measured after 40 days after compound treatment; type: ADME; conditions: 960 h
Leaf [24] = assay: Drug level in leaves of Brassica oleracea (Broccoli) seedlings grown in hydroponic culture containing compound at 1 mg/L in presence of 1 mg/L CdCl2 assessed as Se(IV) level measured after 40 days after compound treatment; type: ADME; conditions: 960 h
Fruit [25] = assay: Drug level in fruits of Brassica oleracea (Broccoli) seedlings grown in hydroponic culture containing 1 mg/L measured after 40 days after compound treatment; type: ADME; conditions: 960 h
Root [26] = assay: Drug level in roots of Brassica oleracea (Broccoli) seedlings grown in hydroponic culture containing compound at 1 mg/L assessed as SeMetSeCys level measured after 40 days after compound treatment; type: ADME; conditions: 960 h
Fruit [27] = assay: Drug level in fruits of Brassica oleracea (Broccoli) seedlings grown in hydroponic culture containing compound at 1 mg/L assessed as SeMet level measured after 40 days after compound treatment; type: ADME; conditions: 960 h
Root [28] = assay: Effect on cadmium level in roots of Brassica oleracea (Broccoli) seedlings grown in hydroponic culture containing 1 mg/L measured after 40 days after compound treatment; type: ADME; conditions: 960 h
Fruit [29] = assay: Effect on cadmium level in fruits of Brassica oleracea (Broccoli) seedlings grown in hydroponic culture containing 1 mg/L in presence of 1 mg/L CdCl2 measured after 40 days after compound treatment; type: ADME; conditions: 960 h
Fruit [30] = assay: Effect on cadmium level in fruits of Brassica oleracea (Broccoli) seedlings grown in hydroponic culture containing 1 mg/L measured after 40 days after compound treatment; type: ADME; conditions: 960 h
Leaf [31] = assay: Effect on cadmium level in leaves of Brassica oleracea (Broccoli) seedlings grown in hydroponic culture containing 1 mg/L in presence of 1 mg/L CdCl2 measured after 40 days after compound treatment; type: ADME; conditions: 960 h
Root [32] = assay: Effect on cadmium level in roots of Brassica oleracea (Broccoli) seedlings grown in hydroponic culture containing 1 mg/L in presence of 1 mg/L CdCl2 measured after 40 days after compound treatment; type: ADME; conditions: 960 h
Fruit [33] = assay: Drug level in fruits of Brassica oleracea (Broccoli) seedlings grown in hydroponic culture containing compound at 1 mg/L in presence of 1 mg/L CdCl2 assessed as SeMetSeCys level measured after 40 days after compound treatment; type: ADME; conditions: 960 h
Brassica oleracea [34] = assay: Protective effect against cadmium-induced toxicity in Brassica oleracea (Broccoli) seedlings grown in hydroponic culture containing compound at 1 mg/L in presence of 1 mg/L CdCl2 assessed as reduction in MDA level after 30 days after compound treatment by spectrophotometry; type: functional, organism-based
Leaf [35] = assay: Drug level in leaves of Brassica oleracea (Broccoli) seedlings grown in hydroponic culture containing 1 mg/L measured after 40 days after compound treatment; type: ADME; conditions: 960 h
Leaf [36] = assay: Drug level in leaves of Brassica oleracea (Broccoli) seedlings grown in hydroponic culture containing 1 mg/L in presence of 1 mg/L CdCl2 measured after 40 days after compound treatment; type: ADME; conditions: 960 h
Brassica oleracea [37] = assay: as §1, with “10” for “40”, “120” for “118”, “8” for “12”; type: functional
Fruit [38] = assay: Drug level in fruits of Brassica oleracea (Broccoli) seedlings grown in hydroponic culture containing compound at 1 mg/L assessed as Se(IV) level measured after 40 days after compound treatment; type: ADME; conditions: 960 h

For `O=[Se]([O-])[O-].[Na+].[Na+]` [SODIUM SELENITE], which Drug uptake (Leaf [1]) is on record?
Its Drug uptake is 0.71 mg/kg.

And the Drug uptake (Root [2])?
The Drug uptake was 3.4 mg/kg.

And the Activity (Brassica oleracea [3])?
The Activity was 155 mg/kg.

What about the Activity (Leaf [4]) of the same compound?
Its Activity is 0.2 mg/kg.

What about the Activity (Brassica oleracea [5]) of the same compound?
Its Activity is 148 mg/kg.

And the Drug uptake (Root [6])?
The Drug uptake was 6.1 mg/kg.

And the Drug uptake (Root [7])?
The Drug uptake was 1.4 mg/kg.

What about the Drug uptake (Leaf [8]) of the same compound?
Its Drug uptake is 0.65 mg/kg.

What about the Drug uptake (Leaf [9]) of the same compound?
Its Drug uptake is 0.59 mg/kg.

And the Activity (Brassica oleracea [10])?
The Activity was “Active”.

And the Drug uptake (Root [11])?
The Drug uptake was 21 mg/kg.

And the Drug uptake (Fruit [12])?
The Drug uptake was 0.24 mg/kg.

And the Activity (Brassica oleracea [13])?
Its Activity is 175 mg/kg.

And the Drug uptake (Root [14])?
Its Drug uptake is 1.6 mg/kg.

What about the Drug uptake (Root [15]) of the same compound?
Its Drug uptake is 20 mg/kg.

What about the Drug uptake (Leaf [16]) of the same compound?
Its Drug uptake is 0.082 mg/kg.

And the Drug uptake (Fruit [17])?
Its Drug uptake is 0.039 mg/kg.

And the Drug uptake (Leaf [18])?
Its Drug uptake is 0.62 mg/kg.

What about the Activity (Brassica oleracea [19]) of the same compound?
Its Activity is 40%.

And the Drug uptake (Fruit [20])?
The Drug uptake was 10 mg/kg.

And the Drug uptake (Fruit [21])?
Its Drug uptake is 12.3 mg/kg.

What about the Activity (Brassica oleracea [22]) of the same compound?
Its Activity is “Active”.

What about the Drug uptake (Root [23]) of the same compound?
The Drug uptake was 5.4 mg/kg.

What about the Drug uptake (Leaf [24]) of the same compound?
Its Drug uptake is 0.09 mg/kg.

What about the Drug uptake (Fruit [25]) of the same compound?
The Drug uptake was 27 mg/kg.

And the Drug uptake (Root [26])?
Its Drug uptake is 3.6 mg/kg.

What about the Drug uptake (Fruit [27]) of the same compound?
The Drug uptake was 7.2 mg/kg.

What about the Activity (Root [28]) of the same compound?
The Activity was 0.36 mg/kg.

What about the Activity (Fruit [29]) of the same compound?
Its Activity is 48 mg/kg.

What about the Activity (Fruit [30]) of the same compound?
The Activity was 0.4 mg/kg.

And the Activity (Leaf [31])?
The Activity was 7.5 mg/kg.

And the Activity (Root [32])?
The Activity was 53 mg/kg.

What about the Drug uptake (Fruit [33]) of the same compound?
Its Drug uptake is 6.5 mg/kg.

What about the Activity (Brassica oleracea [34]) of the same compound?
The Activity was “Active”.

And the Drug uptake (Leaf [35])?
The Drug uptake was 2 mg/kg.

And the Drug uptake (Leaf [36])?
The Drug uptake was 1.54 mg/kg.

And the Activity (Brassica oleracea [37])?
The Activity was 177 mg/kg.

And the Drug uptake (Fruit [38])?
Its Drug uptake is 1.89 mg/kg.
